Experimental data as given in patent publication US12030879B2, “Sulfonyl acetamides as NLRP3 inhibitors” (Inflazome Limited, priority 2018, dated 2024).
Where a name gives a salt, the structure may show the parent alone.

These compounds were tested against T1, NLRP3 (Homo sapiens, UniProt Q96P20) (assay: THP-1 cells pyroptosis assay). Details: LPS 1 μg/ml, compound 3 hrs, nigericin 5 μM 1 hr, resazurin readout.
T1 construct: Seed THP-1 cells (25,000 cells/well) containing 1.0 μg/ml LPS in 40 μl of RPMI medium; host or cells: THP-1 cells
Format: cell-based
Description: THP-1 cells (ATCC #TIB-202) were grown in RPMI containing L-glutamine (Gibco #11835) supplemented with 1 mM sodium pyruvate (Sigma #S8636) and penicillin (100 units/ml)/streptomycin (0.1 mg/ml) (Sigma #P4333) in 10% Fetal Bovine Serum (FBS) (Sigma #F0804). The cells were routinely passaged and grown to confluency (10^6 cells/ml). On the day of the experiment, THP-1 cells were harvested and resuspended into RPMI medium (without FBS). The cells were then counted and viability (>90%) checked by Trypan blue (Sigma #T8154). Appropriate dilutions were made to give a concentration of 625,000 cells/ml. To this diluted cell solution was added LPS (Sigma #L4524) to give a 1 μg/ml Final Assay Concentration (FAC). 40 μl of the final preparation was aliquoted into each well of a 96-well plate. The plate thus prepared was used for compound screening.
The following method step-by-step assay was followed for compound screening. • 1. Seed THP-1 cells (25,000 cells/well) containing 1.0 μg/ml LPS in 40 μl of RPMI medium (without FBS) in 96-well, black walled, clear bottom cell culture plates coated with poly-D-lysine (VWR #734-0317) • 2. Add 5 μl compound (8 points half-log dilution, with 10 μM top dose) or vehicle (DMSO 0.1% FAC) to the appropriate wells • 3. Incubate for 3 hrs at 37° C., 5% CO2 • 4. Add 5 μl nigericin (Sigma #N7143) (FAC 5 μM) to all wells • 5. Incubate for 1 hr at 37° C., 5% CO2 • 6. At the end of the incubation period, spin plates at 300×g for 3 mins and remove supernatant • 7. Then add 50 μl of resazurin (Sigma #R7017)(FAC 100 μM resazurin in RPMI medium without FBS) and incubate plates for a further 1-2 hrs at 37° C. and 5% CO2 • 8. Plates were read in an Envision reader at Ex 560 nm and Em 590 nm • 9. IC50 data is fitted to a non-linear regression equation (log inhibitor vs response-variable slope 4-parameters) 96-well Plate Map

T1 sequence (Q96P20 whole entry): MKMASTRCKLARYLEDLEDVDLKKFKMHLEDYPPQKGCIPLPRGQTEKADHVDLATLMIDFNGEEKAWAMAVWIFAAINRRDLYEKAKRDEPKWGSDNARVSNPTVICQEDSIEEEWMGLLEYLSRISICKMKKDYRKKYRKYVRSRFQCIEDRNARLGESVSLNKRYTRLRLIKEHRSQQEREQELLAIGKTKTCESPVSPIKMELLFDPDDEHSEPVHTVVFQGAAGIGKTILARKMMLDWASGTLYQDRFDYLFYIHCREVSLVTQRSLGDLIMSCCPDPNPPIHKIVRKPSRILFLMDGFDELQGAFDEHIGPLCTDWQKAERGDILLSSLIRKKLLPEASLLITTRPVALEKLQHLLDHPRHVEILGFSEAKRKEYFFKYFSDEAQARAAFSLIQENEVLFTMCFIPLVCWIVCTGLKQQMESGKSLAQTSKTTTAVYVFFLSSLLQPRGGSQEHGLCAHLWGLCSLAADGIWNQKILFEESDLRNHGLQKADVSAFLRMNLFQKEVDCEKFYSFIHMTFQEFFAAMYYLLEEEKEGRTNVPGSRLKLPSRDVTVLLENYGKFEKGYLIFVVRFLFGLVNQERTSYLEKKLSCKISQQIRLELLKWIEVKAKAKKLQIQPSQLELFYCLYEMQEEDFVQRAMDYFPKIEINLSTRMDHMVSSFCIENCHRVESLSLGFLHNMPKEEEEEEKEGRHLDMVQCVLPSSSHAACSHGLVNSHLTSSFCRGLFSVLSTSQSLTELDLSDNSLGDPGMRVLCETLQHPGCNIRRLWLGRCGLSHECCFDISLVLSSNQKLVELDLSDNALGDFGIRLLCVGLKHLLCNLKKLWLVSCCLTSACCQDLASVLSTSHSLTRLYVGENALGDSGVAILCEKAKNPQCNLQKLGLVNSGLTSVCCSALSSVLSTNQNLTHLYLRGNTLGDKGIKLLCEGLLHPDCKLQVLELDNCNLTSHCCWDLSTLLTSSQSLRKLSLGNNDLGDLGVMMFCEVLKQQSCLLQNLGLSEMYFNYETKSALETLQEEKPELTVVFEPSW

Row | Compound | IC50
1 | COc1cc(-c2cc(F)cc(C(C)C)c2CC(=O)NS(=O)(=O)c2cc(C(C)C)cs2)ccn1 [Example 205] | ≤ 0.5 µM
2 | COc1cc(-c2cc(F)cc(C(C)C)c2CC(=O)NS(=O)(=O)c2ccc(B(O)O)cc2)ccn1 [Example 18] | ≤ 10 µM
3 | COc1cc(-c2cc(F)cc(C(C)C)c2CC(=O)NS(=O)(=O)c2cncc(N(C)C)n2)ccn1 [Example 191] | ≤ 1 µM
4 | CC(C)c1cc(F)cc(-c2cccnc2)c1CC(=O)NS(=O)(=O)c1cc(C(=O)N(C)C)n(C)n1 [Example 59, 3-(N-(2-(4-Fluoro-2-isopropyl-6-(pyridin-3-yl)phenyl)acetyl)sulfamoyl)-N,N,1-trimethyl-1H-pyrazole-5-carboxamide] | ≤ 5 µM
5 | CC(C)n1ccc(S(=O)(=O)NC(=O)Cc2c(-c3ccnc(C#N)c3)ccc3c2CCC3)n1 [Example 21, 2-(5-(2-Cyanopyridin-4-yl)-2,3-dihydro-H-inden-4-yl)-N-((1-isopropyl-1H-pyrazol-3-yl)sulfonyl)acetamide] | ≤ 10 µM
6 | COc1cc(-c2cc(F)cc(C(C)C)c2CC(=O)NS(=O)(=O)c2ccc(C(C)(C)O)cn2)ccn1 [Example 137] | ≤ 10 µM
7 | COc1cc(-c2cc(F)cc(C(C)C)c2CC(=O)NS(=O)(=O)c2ccc(C3CC3)cc2C)ccn1 [Example 151] | ≤ 0.5 µM
8 | C=C(C)c1csc(S(=O)(=O)NC(=O)Cc2c(-c3ccnc(OC)c3)nn(C)c2C(C)C)c1 [Example 163] | ≤ 10 µM
9 | CC(C)c1cc(F)cc(-c2ccnc(O)c2)c1CC(=O)NS(=O)(=O)c1cc(C(C)(C)O)cs1 [Example 158] | ≤ 5 µM
10 | COc1cc(-c2cc(F)cc(C(C)C)c2CC(=O)NS(=O)(=O)c2ccc(C(C)(C)C#N)cc2)ccn1 [Example 190] | ≤ 5 µM
11 | COc1cc(-c2cc(F)cc(C(C)C)c2CC(=O)NS(=O)(=O)c2ccc(-c3cnco3)cc2)ccn1 [Example 184] | ≤ 1 µM
12 | COc1ccncc1-c1cc(F)cc(C(C)C)c1CC(=O)NS(=O)(=O)c1cc(C(C)(C)O)cs1 [Example 99, 2-(4-Fluoro-2-isopropyl-6-(4-methoxypyridin-3-yl)phenyl)-N-((4-(2-hydroxypropan-2-yl)thiophen-2-yl)sulfonyl)acetamide] | ≤ 0.5 µM
13 | COc1cc(-c2cc(F)cc(C(C)C)c2CC(=O)NS(=O)(=O)c2cc(C(C)C)c(F)cc2F)ccn1 [Example 156] | ≤ 0.5 µM
14 | COc1cc(-c2cc(F)cc(C(C)C)c2CC(=O)NS(=O)(=O)c2ccc(C)c(C)c2)ccn1 [Example 122] | ≤ 0.5 µM
15 | COc1cc(-c2cc(F)cc(C(C)C)c2CC(=O)NS(=O)(=O)c2ccn(C(C)C)n2)ccn1 [Example 23, 2-(4-Fluoro-2-isopropyl-6-(2-methoxypyridin-4-yl)phenyl)-N-((1-isopropyl-1H-pyrazol-3-yl)sulfonyl)acetamide, potassium salt] | ≤ 5 µM
16 | COc1cc(-c2cc(F)cc(C(C)C)c2CC(=O)NS(=O)(=O)c2ccc(C#N)cc2C)ccn1 [Example 37, N-((4-Cyano-2-methylphenyl)sulfonyl)-2-(4-fluoro-2-isopropyl-6-(2-methoxypyridin-4-yl)phenyl)acetamide] | ≤ 5 µM
17 | C=C(C)c1ccc(C)c(S(=O)(=O)NC(=O)Cc2c(-c3ccnc(OC)c3)cc(F)cc2C(C)C)c1 [Example 209] | ≤ 0.5 µM
18 | COc1cc(-c2cc(F)cc(C(C)C)c2CC(=O)NS(=O)(=O)c2ccc(Br)cc2C(F)(F)F)ccn1 [Example 140] | ≤ 5 µM
19 | COc1cc(-c2cc(F)cc(C(C)C)c2CC(=O)NS(=O)(=O)c2cccc(C(C)(C)C#N)c2)ccn1 [Example 81, N-((3-(2-Cyanopropan-2-yl)phenyl)sulfonyl)-2-(4-fluoro-2-isopropyl-6-(2-methoxypyridin-4-yl)phenyl)acetamide] | ≤ 5 µM
20 | CC(C)c1cc(S(=O)(=O)NC(=O)Cc2c(-c3ccncc3)cc(F)cc2C(C)C)c(F)cc1F [Example 201] | ≤ 0.5 µM
21 | COc1cc(-c2cc(F)cc(C(C)C)c2CC(=O)NS(=O)(=O)c2nn(C)/c(=N\C(C)=O)s2)ccn1 [Example 131] | ≤ 5 µM

Row | Compound | IC50
22 | COc1cc(-c2cc(F)cc(C(C)C)c2CC(=O)NS(=O)(=O)c2cc(C(C)(C)O)ccc2C)ccn1 [Example 167] | ≤ 5 µM
23 | COc1cc(-c2ccc3c(c2CC(=O)NS(=O)(=O)c2cc(C(C)(C)O)cs2)CCC3)ccn1 [Example 20, N-((4-(2-Hydroxypropan-2-yl)thiophen-2-yl)sulfonyl)-2-(5-(2-methoxypyridin-4-yl)-2,3-dihydro-1H-inden-4-yl)acetamide] | ≤ 1 µM
24 | C=C(C)c1ccc(S(=O)(=O)NC(=O)Cc2c(-c3ccnc(OC)c3)cc(F)cc2C(C)C)c(C)c1 [Example 164] | ≤ 0.5 µM
25 | COc1cc(-c2cc(F)cc(C(C)C)c2CC(=O)NS(=O)(=O)c2ccc(C(C)(C)O)cc2)ccn1 [Example 80, 2-(4-Fluoro-2-isopropyl-6-(2-methoxypyridin-4-yl)phenyl)-N-((4-(2-hydroxypropan-2-yl)phenyl)sulfonyl)acetamide] | ≤ 5 µM
26 | COc1cc(-c2cc(F)cc(C(C)C)c2CC(=O)NS(=O)(=O)C[C@]23CCC(CC2=O)C3(C)C)ccn1 [Example 75] | ≤ 10 µM
27 | COc1cc(-c2cc(F)cc(C(C)C)c2CC(=O)NS(=O)(=O)c2cc(Br)ccc2C)ccn1 [Example 128] | ≤ 1 µM
28 | COc1cc(-c2cc(F)cc(C(C)C)c2CC(=O)NS(=O)(=O)c2cccc(Cl)c2C)ccn1 [Example 6] | ≤ 10 µM
29 | COc1cccc(S(=O)(=O)NC(=O)Cc2c(-c3ccnc(OC)c3)cc(F)cc2C(C)C)c1 [Example 119] | ≤ 1 µM
30 | COc1cc(-c2cc(F)cc(C(C)C)c2CC(=O)NS(=O)(=O)c2ccc(CCNC(C)=O)cc2)ccn1 [Example 130] | ≤ 5 µM
31 | COc1cc(-c2ccc3c(c2CC(=O)NS(=O)(=O)c2cc(C(=O)N(C)C)n(C)n2)CCC3)ccn1 [Example 64, 3-(N-(2-(5-(2-Methoxypyridin-4-yl)-2,3-dihydro-1H-inden-4-yl)acetyl)sulfamoyl)-N,N,1-trimethyl-1H-pyrazole-5-carboxamide] | ≤ 10 µM
32 | COc1cc(-c2cc(F)cc(C(C)C)c2CC(=O)NS(=O)(=O)c2ccc(C(C)=O)cc2)ccn1 [Example 43, N-((4-Acetylphenyl)sulfonyl)-2-(4-fluoro-2-isopropyl-6-(2-methoxypyridin-4-yl)phenyl)acetamide] | ≤ 5 µM
33 | COc1cc(-c2cc(F)cc(C(C)C)c2CC(=O)NS(=O)(=O)c2cc(CN(C)C)n(C)n2)ccn1 [Example 62, N-((5-((Dimethylamino)methyl)-1-methyl-1H-pyrazol-3-yl)sulfonyl)-2-(4-fluoro-2-isopropyl-6-(2-methoxypyridin-4-yl)phenyl) acetamide] | ≤ 5 µM
34 | COc1cc(-c2cc(F)cc(C(C)C)c2CC(=O)NS(=O)(=O)c2ccc(C(C)(C)NC(=O)OC(C)(C)C)c(F)c2)ccn1 [Example 90, tert-Butyl (2-(2-fluoro-4-(N-(2-(4-fluoro-2-isopropyl-6-(2-methoxypyridin-4-yl)phenyl)acetyl)sulfamoyl)phenyl)propan-2-yl)carbamate] | ≤ 0.5 µM
35 | COc1cc(-c2cc(F)cc(C(C)C)c2CC(=O)NS(=O)(=O)c2cnc(C(C)(C)O)s2)ccn1 [Example 108, 2-(4-Fluoro-2-isopropyl-6-(2-methoxypyridin-4-yl)phenyl)-N-((2-(2-hydroxypropan-2-yl)thiazol-5-yl)sulfonyl)acetamide] | ≤ 5 µM
36 | COc1cc(-c2cc(F)cc(C(C)C)c2CC(=O)NS(=O)(=O)c2ncc(C(C)(C)O)s2)ccn1 [Example 106, 2-(4-Fluoro-2-isopropyl-6-(2-methoxypyridin-4-yl)phenyl)-N-((5-(2-hydroxypropan-2-yl)thiazol-2-yl)sulfonyl)acetamide] | ≤ 5 µM
37 | COc1cc(-c2cc(F)cc(C(C)C)c2CC(=O)NS(=O)(=O)c2cc(Br)c(Cl)cc2C)ccn1 [Example 178] | ≤ 1 µM
38 | COc1cc(-c2cc(F)cc(C(C)C)c2CC(=O)NS(=O)(=O)c2cc(C(C)(C)O)c(F)cc2F)ccn1 [Example 149] | ≤ 0.5 µM
39 | COc1cc(-c2cc(F)cc(C(C)C)c2CC(=O)NS(=O)(=O)c2ccc(CC#N)cc2)ccn1 [Example 187] | ≤ 5 µM
40 | CC(C)c1cc(F)cc(-c2cccnc2)c1CC(=O)NS(=O)(=O)c1ncc(C(C)(C)O)s1 [Example 143] | ≤ 1 µM
41 | COc1cc(-c2cc(F)cc(C(C)C)c2CC(=O)NS(=O)(=O)c2ccc(C(C)(C)O)cc2C)ccn1 [Example 33, 2-(4-Fluoro-2-isopropyl-6-(2-methoxypyridin-4-yl)phenyl)-N-((4-(2-hydroxypropan-2-yl)-2-methylphenyl)sulfonyl)acetamide] | ≤ 0.5 µM
42 | COc1cc(-c2ccc3c(c2CC(=O)NS(=O)(=O)c2cc(C(C)C)c(F)cc2F)CCC3)ccn1 [Example 204] | ≤ 5 µM
